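Briefly, cells in 96-well plates were exposed to five compound concentrations for 48 h, and endpoints were estimated by linear interpolation. TGI denotes the concentration required for complete inhibition of growth.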
Experiments:
Test in all cases: NCI-60 cell line screen, 48 h
UACC-257 melanoma = tested on: UACC-257 melanoma
OVCAR-8 ovarian = tested on: OVCAR-8 ovarian
MDA-MB-435 = tested on: MDA-MB-435
IGROV1 ovarian = tested on: IGROV1 ovarian
NCI-H226 lung = tested on: NCI-H226 lung
EKVX NSCLC = tested on: EKVX NSCLC
SK-MEL-2 melanoma = tested on: SK-MEL-2 melanoma
KM20L2 colon = tested on: KM20L2 colon
SNB-78 CNS = tested on: SNB-78 CNS
SNB-75 CNS = tested on: SNB-75 CNS
PC-3 prostate = tested on: PC-3 prostate
COLO 205 colon = tested on: COLO 205 colon
SF-539 CNS = tested on: SF-539 CNS
HS 578T breast = tested on: HS 578T breast
CAKI-1 renal = tested on: CAKI-1 renal
RPMI-8226 leukemia = tested on: RPMI-8226 leukemia
HCC-2998 colon = tested on: HCC-2998 colon
SR leukemia = tested on: SR leukemia
NCI-H460 lung = tested on: NCI-H460 lung
T-47D breast = tested on: T-47D breast
DU-145 prostate = tested on: DU-145 prostate
OVCAR-3 ovarian = tested on: OVCAR-3 ovarian
786-0 renal = tested on: 786-0 renal
HL-60(TB) leukemia = tested on: HL-60(TB) leukemia
HOP-62 NSCLC = tested on: HOP-62 NSCLC
M14 melanoma = tested on: M14 melanoma
XF 498 CNS = tested on: XF 498 CNS
SF-268 CNS = tested on: SF-268 CNS
OVCAR-4 ovarian = tested on: OVCAR-4 ovarian
U251 CNS = tested on: U251 CNS
LOX IMVI melanoma = tested on: LOX IMVI melanoma
BT-549 breast = tested on: BT-549 breast
DMS 114 small cell lung = tested on: DMS 114 small cell lung
RXF-631 renal = tested on: RXF-631 renal
HCT-15 colon = tested on: HCT-15 colon
KM12 colon = tested on: KM12 colon
SNB-19 CNS = tested on: SNB-19 CNS
K-562 leukemia = tested on: K-562 leukemia
HT29 colon = tested on: HT29 colon
NCI/ADR-RES ovarian = tested on: NCI/ADR-RES ovarian
LXFL 529 NSCLC = tested on: LXFL 529 NSCLC
ACHN renal = tested on: ACHN renal
SW-620 colon = tested on: SW-620 colon
M19-MEL melanoma = tested on: M19-MEL melanoma
NCI-H23 lung = tested on: NCI-H23 lung
MCF7 breast = tested on: MCF7 breast
OVCAR-5 ovarian = tested on: OVCAR-5 ovarian
SN12C renal = tested on: SN12C renal
MOLT-4 leukemia = tested on: MOLT-4 leukemia
SK-OV-3 ovarian = tested on: SK-OV-3 ovarian
TK-10 renal = tested on: TK-10 renal
SK-MEL-5 melanoma = tested on: SK-MEL-5 melanoma
DLD-1 colon = tested on: DLD-1 colon
MDA-MB-231 breast = tested on: MDA-MB-231 breast
CCRF-CEM leukemia = tested on: CCRF-CEM leukemia
MALME-3M melanoma = tested on: MALME-3M melanoma
RXF 393 renal = tested on: RXF 393 renal
UACC-62 melanoma = tested on: UACC-62 melanoma
DMS 273 small cell lung = tested on: DMS 273 small cell lung
SF-295 CNS = tested on: SF-295 CNS
HOP-18 NSCLC = tested on: HOP-18 NSCLC
HCT-116 colon = tested on: HCT-116 colon
NCI-H522 lung = tested on: NCI-H522 lung
A549 NSCLC = tested on: A549 NSCLC
SK-MEL-28 melanoma = tested on: SK-MEL-28 melanoma
UO-31 renal = tested on: UO-31 renal
MDA-N = tested on: MDA-N
A498 renal = tested on: A498 renal

Structure (SMILES): C/C1=C/C2OC(=O)C3(C)C2C(CC2(C)OC1=CC2=O)OC3(O)C(C)C (stereo not drawn)
- TGI (UACC-257 melanoma): > 75.1 µM
- TGI (OVCAR-8 ovarian): > 62.4 µM
- TGI (MDA-MB-435): > 100 µM
- TGI (IGROV1 ovarian): > 84.5 µM
- TGI (NCI-H226 lung): > 78.6 µM
- TGI (EKVX NSCLC): > 100 µM
- TGI (SK-MEL-2 melanoma): > 84.6 µM
- TGI (KM20L2 colon): 43.2 µM
- TGI (SNB-78 CNS): > 100 µM
- TGI (SNB-75 CNS): > 100 µM
- TGI (PC-3 prostate): > 100 µM
- TGI (COLO 205 colon): > 73 µM
- TGI (SF-539 CNS): > 89.6 µM
- TGI (HS 578T breast): > 100 µM
- TGI (CAKI-1 renal): 62 µM
- TGI (RPMI-8226 leukemia): > 86.1 µM
- TGI (HCC-2998 colon): 48.8 µM
- TGI (SR leukemia): 65.7 µM
- TGI (NCI-H460 lung): > 100 µM
- TGI (T-47D breast): > 100 µM
- TGI (DU-145 prostate): > 100 µM
- TGI (OVCAR-3 ovarian): > 64.9 µM
- TGI (786-0 renal): > 69.3 µM
- TGI (HL-60(TB) leukemia): 54.9 µM
- TGI (HOP-62 NSCLC): > 100 µM
- TGI (M14 melanoma): > 100 µM
- TGI (XF 498 CNS): 41 µM
- TGI (SF-268 CNS): > 65.9 µM
- TGI (OVCAR-4 ovarian): > 55.3 µM
- TGI (U251 CNS): > 54 µM
- TGI (LOX IMVI melanoma): > 100 µM
- TGI (BT-549 breast): 24.9 µM
- TGI (DMS 114 small cell lung): 29.6 µM
- TGI (RXF-631 renal): > 100 µM
- TGI (HCT-15 colon): > 63.1 µM
- TGI (KM12 colon): > 60.3 µM
- TGI (SNB-19 CNS): > 74.4 µM
- TGI (K-562 leukemia): > 100 µM
- TGI (HT29 colon): > 66.9 µM
- TGI (NCI/ADR-RES ovarian): > 100 µM
- TGI (LXFL 529 NSCLC): 93.1 µM
- TGI (ACHN renal): > 100 µM
- TGI (SW-620 colon): 67.4 µM
- TGI (M19-MEL melanoma): > 100 µM
- TGI (NCI-H23 lung): > 54.1 µM
- TGI (MCF7 breast): > 100 µM
- TGI (OVCAR-5 ovarian): > 79.3 µM
- TGI (SN12C renal): > 71.4 µM
- TGI (MOLT-4 leukemia): > 100 µM
- TGI (SK-OV-3 ovarian): > 100 µM
- TGI (TK-10 renal): > 100 µM
- TGI (SK-MEL-5 melanoma): 55 µM
- TGI (DLD-1 colon): 87.8 µM
- TGI (MDA-MB-231 breast): > 100 µM
- TGI (CCRF-CEM leukemia): > 73.4 µM
- TGI (MALME-3M melanoma): 77.8 µM
- TGI (RXF 393 renal): > 70.5 µM
- TGI (UACC-62 melanoma): 56.4 µM
- TGI (DMS 273 small cell lung): > 100 µM
- TGI (SF-295 CNS): > 78.7 µM
- TGI (HOP-18 NSCLC): > 100 µM
- TGI (HCT-116 colon): > 100 µM
- TGI (NCI-H522 lung): 35.7 µM
- TGI (A549 NSCLC): > 100 µM
- TGI (SK-MEL-28 melanoma): > 100 µM
- TGI (UO-31 renal): > 100 µM
- TGI (MDA-N): > 100 µM
- TGI (A498 renal): > 100 µM

Reference: PubChem BioAssay (NCI)
